Patent US9278942B2, “Non-steroidal compounds as androgen receptor modulators” (FLX Discoveries Oy, priority 2011, dated 2016)
Where a chain is given by its changes, count along the chain named.

Assays:
human AR = molecular target: T1, human AR (Homo sapiens, UniProt P10275); experiment: AR antagonism assay: inhibition of transcriptional activation of AR (Probasin-luc reporter, COS-1 cells); assay type: cell-based; conditions: compound 10.0 μM; relative luciferase response: 100% for testosterone (no antiandrogenic effect), 0% for complete antagonism
T1 construct: expressed in transfected cells; host or cells: COS-1
T1 sequence (P10275 1-920): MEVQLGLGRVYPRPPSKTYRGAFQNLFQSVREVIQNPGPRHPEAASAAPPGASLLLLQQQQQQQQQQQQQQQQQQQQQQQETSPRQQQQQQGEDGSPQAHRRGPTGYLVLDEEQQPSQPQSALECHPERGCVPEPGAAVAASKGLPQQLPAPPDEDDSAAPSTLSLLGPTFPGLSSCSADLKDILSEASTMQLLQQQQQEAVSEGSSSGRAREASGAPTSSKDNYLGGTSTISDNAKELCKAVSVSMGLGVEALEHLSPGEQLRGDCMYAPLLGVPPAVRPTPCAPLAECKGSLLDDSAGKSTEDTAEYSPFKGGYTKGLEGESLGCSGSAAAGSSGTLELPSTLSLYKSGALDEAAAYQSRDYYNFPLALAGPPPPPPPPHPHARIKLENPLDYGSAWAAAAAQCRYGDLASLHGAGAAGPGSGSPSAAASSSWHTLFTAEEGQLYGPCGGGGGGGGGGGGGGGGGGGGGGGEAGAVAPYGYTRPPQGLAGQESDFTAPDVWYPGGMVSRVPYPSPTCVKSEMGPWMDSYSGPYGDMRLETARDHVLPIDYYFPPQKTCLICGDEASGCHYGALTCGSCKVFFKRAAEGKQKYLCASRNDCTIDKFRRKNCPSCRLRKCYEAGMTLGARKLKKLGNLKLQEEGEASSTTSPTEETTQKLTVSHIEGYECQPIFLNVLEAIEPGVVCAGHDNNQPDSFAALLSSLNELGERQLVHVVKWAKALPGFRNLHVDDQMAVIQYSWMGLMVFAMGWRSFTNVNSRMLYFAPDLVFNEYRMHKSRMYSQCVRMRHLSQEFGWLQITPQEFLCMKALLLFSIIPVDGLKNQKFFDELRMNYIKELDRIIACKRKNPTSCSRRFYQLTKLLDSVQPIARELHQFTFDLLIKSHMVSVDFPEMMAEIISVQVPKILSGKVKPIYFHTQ
In short: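 COS-1 cells transfected 24 h with human AR vector, Probasin-luc reporter and β-gal control, then exposed 18 h at 37 °C to 10 μM compound plus 100 nM testosterone. Luciferase read-out normalised to β-galactosidase activity and protein content.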

[1] = molecular target: T2, LNCaP (containing an AR mutation) (Homo sapiens, UniProt P10275, T878A); conditions: LNCaP prostate cancer cells; cited from earlier work
T2 sequence (P10275 1-920 T878A): T1 sequence (P10275 1-920) with T878A

AR antagonism against 100 nM testosterone ± S.D. (human AR): 13.0 ± 1.1%
SMILES: CC(C)(O)C(=O)Nc1ccc([N+](=O)[O-])c(C(F)(F)F)c1 [Hydroxyflutamide, reference compound]
Activity of hydroxyflutamide at the AR mutation of LNCaP cells [1]: agonist
